Where two headings read alike, the source gives them in different places.
Key:
[1] = target: T1, Cyclin Dependent Kinase 1/Cyclin A2 (CDK1-cycA2) (Homo sapiens, UniProt P06493); assay: CDK1-cycA2 TR-FRET (Lance) enzyme assay; assay type: biochemical; conditions: Table O, enzymatic assay
T1 construct: purchased ProQinase 0134-0054-1
Summary of the method: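 Human CDK1/cyclin A2 pre-incubated 30 min with compound dose responses in 50 mM HEPES pH 7.5, 10 mM MgCl2, 2 mM TCEP, 0.05% BGG, 0.01% Brij 35. Reaction quenched with EDTA (15 mM final); TR-FRET readout using Eu-anti-phospho-4E-BP1, acceptor/donor ratio. Inhibition constants from Morrison equation.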

[2] = target: T2, Cyclin Dependent Kinase 2/Cyclin E1 (CDK2-cycE1) (Homo sapiens, UniProt P24941); assay: CDK2-cycE1 TR-FRET (LANCE) enzyme assay; assay type: biochemical; conditions: for FS CDK1/CDK2 / FS CDK4/CDK2: fold selectivity; for increased fold-selectivity CDK4/CDK2 over Comparator C: (+) sign after FS CDK4/CDK2;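 as to improvement in potency against CDK2 (Ki) over Comparator C: fold lower CDK2 Ki than comparator c (Ki 0.032 µM)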
T2 construct: purchased ProQinase 0050-0055-1
Summary of the method: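 Compound dose responses pre-incubated 30 min with CDK2-cycE1 in 50 mM HEPES pH 7.5, 10 mM MgCl2, 2 mM TCEP, 0.05% BGG, 0.01% Brij 35. Reaction quenched with EDTA (15 mM final), phospho-MBP detected by Eu-anti-phospho-MBP TR-FRET (acceptor/donor ratio). Inhibition constants from Morrison equation.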

[3] = test system: OVISE (JCRB1043, CCNE1-amplified); assay: OVISE EdU incorporation cell proliferation assay (CDK2-dependent); assay type: cell-based; conditions: for IC50: cellular assay, read-out: CDK2 OVISE IC50; for FS SKOV-3/OVISE / FS p-H3/OVISE: fold selectivity; for FS p-H3/OVISE: cellular p-H3 IC50 over OVISE IC50; for increased fold-selectivity SKOV-3/OVISE over Comparator C: (+) sign after FS SKOV-3/OVISE; for improvement in CDK2 OVISE cell potency over Comparator C: in brackets after OVISE IC50, Comparator C 5.5 μM
Summary of the method: (§1)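 Cells in RPMI/10% FBS dosed with compound (0.5% DMSO final) for 16 h at 37 °C, 5% CO2, then EdU 0.5 μM final for 8 h before fixation and imaging. IC50 from 4-parameter logistic fit of EdU-positive cell fraction versus dose.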

[4] = target: T3, Cyclin Dependent Kinase 4/Cyclin D3 (CDK4-cycD3) (Homo sapiens, UniProt P11802); assay: CDK4-cycD3 TR-FRET (LANCE) enzyme assay; assay type: biochemical; conditions: Table O, enzymatic assay
T3 construct: purchased Carna Biosciences 04-105
Summary of the method: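 Compound dose responses pre-incubated 30 min with enzyme mix in 50 mM HEPES pH 7.5, 10 mM MgCl2, 2 mM TCEP, 0.05% BGG, 0.01% Brij 35. Reaction quenched with EDTA (15 mM final); Eu-anti-phospho-4E-BP1 TR-FRET detection, acceptor/donor ratio. Ki derived by Morrison equation.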

HCT116 cells = assay: p-H3 HCT-116 mitotic release cell proliferation assay (cellular CDK1); assay type: cell-based; conditions: Homo sapiens, HCT-116; Table O, cellular assay; read-out: CDK1 p-H3 IC50
Description: Inhibition of cellular CDK1 determined by release of cells from nocodazole-induced mitotic arrest, as measured by decrease in phospho-Histone H3. Histone H3 (Ser 10) level is detected in cell lysates by producing a Fluorescence Resonance Energy Transfer (FRET) signal between two antibodies, Phospho-Histone H3 Cryptate (acting as the donor) and Phospho-Histone H3 d2 (acting as the acceptor).
Plates are allowed to rest overnight at 37° C./5% CO2. The following morning, nocodazole is diluted in complete medium, and 5 μL is added to each test well and positive control well for a final concentration of 500 nM. Plates are then incubated for 16 hours at 37° C./5% CO2. […] 10 μL of diluted compound is then transferred to the cell plate (final DMSO concentration 0.1%). Cell plates are then incubated for 4 hours in 37° C. 5% CO2. A cell lysis buffer is prepared on ice using reagents from the Phospho-Histone H3 (Ser10) cellular kit (Cisbio-64HH3PEG). Supernatant is discarded from the cell plate and 80 μL of the supplemented cell lysis buffer (1:99 dilution of the Blocking Reagent and the 1× cell lysis buffer provided in the kit) is added to each of the experimental wells. The cell lysis reaction is allowed to proceed at room temperature while shaking vigorously for 30 minutes. The 384-well HTRF (Homogeneous Time Resolved Fluorescence) plate is prepared by adding 2 μL of each diluted antibody (Phospho-Histone H3 Cryptate antibody and Phospho-Histone H3 d2 antibody diluted 19:1 in a detection buffer) and 12 μL of the supplemented cell lysis buffer to each well in the HTRF plate. 4 μL of the cell lysate is added to the prepared HTRF plate which is then sealed and the reaction is allowed to proceed for a minimum of 2 hours at room temperature.

SKOV-3 (ATCC HTB-77) = assay: SKOV-3 EdU incorporation cell proliferation assay (CDK4/6-dependent); assay type: cell-based; conditions: Homo sapiens, cellular assay, read-out: CDK4/6 SKOV-3 IC50
Summary of the method: as §1

[5] = Table O, enzymatic assay, read-out: CDK2 Ki
[6] = Table O, enzymatic CDK1 Ki over CDK2 Ki
[7] = Table O, enzymatic CDK4 Ki over CDK2 Ki
[8] = Table Q, enzymatic assay, read-out: CDK2 Ki
[9] = Table O, cellular SKOV-3 IC50 over OVISE IC50
[10] = read-out: CDK2 activity / potency (enzymatic assay)

T3 sequence (P11802 whole entry): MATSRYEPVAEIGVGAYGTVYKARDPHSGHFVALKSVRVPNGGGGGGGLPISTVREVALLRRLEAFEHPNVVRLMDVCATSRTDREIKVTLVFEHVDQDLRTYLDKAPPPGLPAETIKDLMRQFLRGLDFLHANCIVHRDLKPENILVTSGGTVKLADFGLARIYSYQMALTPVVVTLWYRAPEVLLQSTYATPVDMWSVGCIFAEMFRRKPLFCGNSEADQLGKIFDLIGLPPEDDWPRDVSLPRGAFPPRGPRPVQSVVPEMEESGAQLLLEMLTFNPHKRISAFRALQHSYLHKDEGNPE
T3 sequence (P30281 whole entry partner): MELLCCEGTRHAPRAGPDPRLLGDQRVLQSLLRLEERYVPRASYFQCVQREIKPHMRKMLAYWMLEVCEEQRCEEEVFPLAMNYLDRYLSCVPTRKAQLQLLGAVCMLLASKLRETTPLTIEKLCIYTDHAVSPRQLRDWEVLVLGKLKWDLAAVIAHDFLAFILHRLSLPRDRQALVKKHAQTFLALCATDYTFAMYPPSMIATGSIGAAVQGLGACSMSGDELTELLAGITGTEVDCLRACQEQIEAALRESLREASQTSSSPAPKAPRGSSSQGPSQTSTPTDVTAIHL
T1 sequence (P06493 whole entry): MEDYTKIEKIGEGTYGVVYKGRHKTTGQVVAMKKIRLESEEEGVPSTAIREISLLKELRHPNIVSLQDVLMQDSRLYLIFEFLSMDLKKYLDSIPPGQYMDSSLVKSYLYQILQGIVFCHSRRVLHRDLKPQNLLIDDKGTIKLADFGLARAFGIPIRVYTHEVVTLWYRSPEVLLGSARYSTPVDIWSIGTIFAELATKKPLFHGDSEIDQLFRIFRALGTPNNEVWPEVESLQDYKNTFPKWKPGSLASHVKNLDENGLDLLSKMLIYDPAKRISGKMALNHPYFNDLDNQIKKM
T1 sequence (P20248 whole entry partner): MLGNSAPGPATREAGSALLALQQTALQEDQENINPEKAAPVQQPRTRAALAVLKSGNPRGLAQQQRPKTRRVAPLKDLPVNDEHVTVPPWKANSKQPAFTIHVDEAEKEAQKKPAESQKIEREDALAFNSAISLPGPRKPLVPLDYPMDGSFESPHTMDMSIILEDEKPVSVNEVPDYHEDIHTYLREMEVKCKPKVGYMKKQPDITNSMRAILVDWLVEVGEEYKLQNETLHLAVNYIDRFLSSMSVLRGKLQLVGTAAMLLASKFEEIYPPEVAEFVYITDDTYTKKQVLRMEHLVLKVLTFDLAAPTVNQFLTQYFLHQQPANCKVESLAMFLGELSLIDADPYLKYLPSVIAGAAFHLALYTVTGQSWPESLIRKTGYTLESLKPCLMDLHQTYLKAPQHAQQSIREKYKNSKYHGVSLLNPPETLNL

Row | Compound | Ki [1] | improvement in potency against CDK2 (Ki) over Comparator C [2] | Ki [2, 5] | FS CDK1/CDK2 [2, 6] | FS CDK4/CDK2 [2, 7] | increased fold-selectivity CDK4/CDK2 over Comparator C ([2]; Table Q) | Ki [2, 8] | FS CDK1/CDK2 ([2]; Table Q, enzymatic) | FS CDK4/CDK2 ([2]; Table Q, enzymatic) | IC50 ([3]; Table O) | FS SKOV-3/OVISE [3, 9] | FS p-H3/OVISE ([3]; Table O) | increased fold-selectivity SKOV-3/OVISE over Comparator C ([3]; Table Q) | FS SKOV-3/OVISE ([3]; Table Q, cellular) | improvement in CDK2 OVISE cell potency over Comparator C ([3]; Table Q) | Ki [4] | IC50 (HCT116 cells) | IC50 (SKOV-3 (ATCC HTB-77); SK-OV-3, Table O) | IC50 (SKOV-3 (ATCC HTB-77); SK-OV-3, Table Q) | Ki [2, 10] | other results
1 | CC(C)NC(=O)O[C@@H]1CC[C@H](c2cc(Nc3ccnc(N)n3)n[nH]2)C1 [Example 2G, (1R,3S)-3-(3-((2-aminopyrimidin-4-yl)amino)-1H-pyrazol-5-yl)cyclopentyl isopropylcarbamate] | 88 nM | 21 fold | 1.5 nM | 59 | 100 | (+) (The (+) sign in Table Q signifies desirable increased fold-selectivity of the exemplary compounds over Comparator C) | 1.5 nM | 59 | 100 | 280 nM | 36 | 1.0 | (+) (The (+) sign in Table Q signifies desirable increased fold-selectivity of the exemplary compounds over Comparator C) | 36 | 19.6 fold | 150 nM | 280 nM | 10000 nM | 10000 nM | – | increased fold-selectivity CDK1/CDK2 over Comparator C ([2]; Table Q, (+) sign after FS CDK1/CDK2): (+) (The (+) sign in Table Q signifies desirable increased fold-selectivity of the exemplary compounds over Comparator C)
2 | CNc1nccc(Nc2cc([C@H]3CC[C@@H](OC(=O)NC(C)C)C3)[nH]n2)n1 [Example 2H, (1R,3S)-3-(3-((2-(methylamino)pyrimidin-4-yl)amino)-1H-pyrazol-5-yl)cyclopentyl isopropylcarbamate] | 7.5 nM | 114 fold | 0.28 nM | 27 | 64 | (+) (The (+) sign in Table Q signifies desirable increased fold-selectivity of the exemplary compounds over Comparator C) | 0.28 nM | 27 | 64 | 67 nM | 16 | 0.48 | (+) (The (+) sign in Table Q signifies desirable increased fold-selectivity of the exemplary compounds over Comparator C) | 16 | 82 fold | 18 nM | 32 nM | 1100 nM | 1100 nM | ≤ 1 nM | –
3 | CCn1nc(Nc2cc([C@H]3CC[C@@H](OC(=O)NC(C)C)C3)[nH]n2)ccc1=O [Example 2HH, (1R,3S)-3-(3-((1-ethyl-6-oxo-1,6-dihydropyridazin-3-y1)amino)-1H-pyrazol-5-y1)cyclopenty1 isopropylcarbamate] | 6.9 nM | – | 0.43 nM | 16 | 490 | – | – | – | – | 60 nM | 77 | 0.53 | – | – | – | 210 nM | 32 nM | 4600 nM | – | – | –
4 | CC(C)NC(=O)O[C@@H]1CC[C@H](c2cc(Nc3ccnc(N(C)C)n3)n[nH]2)C1 [Example 2I, (1R,3S)-3-(3-((2-(dimethylamino)pyrimidin-4-yl)amino)-1H-pyrazol-5-yl)cyclopentyl isopropylcarbamate] | 6 nM | 103 fold | 0.31 nM | 19 | 87 | (+) (The (+) sign in Table Q signifies desirable increased fold-selectivity of the exemplary compounds over Comparator C) | 0.31 nM | 19 | 87 | 67 nM | 15 | 0.14 | (+) (The (+) sign in Table Q signifies desirable increased fold-selectivity of the exemplary compounds over Comparator C) | 15 | 82 fold | 27 nM | 9.4 nM | 1000 nM | 1000 nM | ≤ 1 nM | –
5 | Cc1cncc(Nc2cc([C@H]3CC[C@@H](OC(=O)NC(C)C)C3)[nH]n2)c1 [Example 2K, (1R,3S)-3-(3-((5-methylpyridin-3-yl)amino)-1H-pyrazol-5-yl)cyclopentyl isopropylcarbamate] | 59 nM | 10 fold | 3.2 nM | 18 | 110 | (+) (The (+) sign in Table Q signifies desirable increased fold-selectivity of the exemplary compounds over Comparator C) | 3.2 nM | 18 | 110 | 190 nM | 41 | 0.46 | (+) (The (+) sign in Table Q signifies desirable increased fold-selectivity of the exemplary compounds over Comparator C) | 41 | 28.9 fold | 340 nM | 87 nM | 7700 nM | 7700 nM | – | –
6 | CC(C)NC(=O)O[C@@H]1CC[C@H](c2cc(Nc3ccnc(C(F)(F)F)n3)n[nH]2)C1 [Example 2L, (1R,3S)-3-(3-((2-(trifluoromethyl)pyrimidin-4-yl)amino)-1H-pyrazol-5-yl)cyclopentyl isopropylcarbamate] | 2.9 nM | 188 fold | 0.17 nM | 17 | 650 | (+) (The (+) sign in Table Q signifies desirable increased fold-selectivity of the exemplary compounds over Comparator C) | 0.17 nM | 17 | 650 | 12 nM | 53 | 0.15 | (+) (The (+) sign in Table Q signifies desirable increased fold-selectivity of the exemplary compounds over Comparator C) | 53 | 458 fold | 110 nM | 1.8 nM | 640 nM | 640 nM | – | –
